Assays:
LCK protein = LCK protein (Homo sapiens (Human), UniProt P06239); experiment: LCK Inhibition Assay; assay type: biochemical
Experimental: Test compound was dissolved in DMSO at 10 mM. 45 uL of compound was transfer into a 384-well compound source plate (LABCYTE cat #P-05525) and serially diluted at 1:3 ratio to create a 11-point dilutions. The same volume of DMSO was adopted as high control. 20 nL of these compounds DMSO dilutes were dispensed into a new 384-well assay plate by Echo 550. LCK protein (0.50 nM, Cama Biosciences, cat #08-170), florescent labeled substrate FLPeptide4 (2 μM, PerkinElmer, cat #760348) was prepared in kinase assay buffer (50 mM HEPES (pH 7.5), 10 mM MgCl2, 0.01% Brij-35, 2 mM DTT and 0.005 mg/ml BSA). 15 uL of kinase assay buffer containing LCK protein and substrate was transferred to assay plate and incubate at RT for 30 minutes. Kinase assay buffer supplemented with substrate peptides was employed as low control to monitor the background. 400 μM ATP was prepared in kinase assay buffer and 5 μL of ATP solution was added to each well to start the reaction. The assay plate was incubated at 25° C. for 90 minutes and the reaction was stopped by adding 40 μL of 0.5 M EDTA.
(§1) Phosphorylated fluorescent-tagged peptides were differentiated from non-phosphorylated peptides by separating using Caliper EZ Reader II and the detection was directly converted to conversion ratio.
(§2) For estimation of IC50, the % substrate conversion values are transformed to % Inhibition Ratio by applying the following equation: […]

CSK protein = CSK protein (Homo sapiens (Human), UniProt P41240); experiment: CSK Inhibition Assay; assay type: biochemical
Experimental: Test compound was dissolved in DMSO at 10 mM. 45 uL of compound was transferred into a 384-well compound source plate (LABCYTE cat #P-05525) and serially diluted at 1:3 ratio to create a 11-point dilutions. The same volume of DMSO was adopted as high control. 20 nL of these compounds DMSO dilutes were dispensed into a new 384-well assay plate by Echo 550. […] 15 uL of kinase assay buffer containing CSK protein and substrate was transferred to assay plate and incubated at RT for 30 minutes. Kinase assay buffer supplemented with substrate peptides was employed as low control to monitor the background. 4 μM of ATP was prepared in kinase assay buffer and 5 μL of ATP solution was added to each well to start the reaction. The assay plate was incubated at 25° C. for 90 minutes and the reaction was stopped by adding 40 μL of 0.5 M EDTA.
as §1, §2

LCK protein, sequence (P06239 whole entry): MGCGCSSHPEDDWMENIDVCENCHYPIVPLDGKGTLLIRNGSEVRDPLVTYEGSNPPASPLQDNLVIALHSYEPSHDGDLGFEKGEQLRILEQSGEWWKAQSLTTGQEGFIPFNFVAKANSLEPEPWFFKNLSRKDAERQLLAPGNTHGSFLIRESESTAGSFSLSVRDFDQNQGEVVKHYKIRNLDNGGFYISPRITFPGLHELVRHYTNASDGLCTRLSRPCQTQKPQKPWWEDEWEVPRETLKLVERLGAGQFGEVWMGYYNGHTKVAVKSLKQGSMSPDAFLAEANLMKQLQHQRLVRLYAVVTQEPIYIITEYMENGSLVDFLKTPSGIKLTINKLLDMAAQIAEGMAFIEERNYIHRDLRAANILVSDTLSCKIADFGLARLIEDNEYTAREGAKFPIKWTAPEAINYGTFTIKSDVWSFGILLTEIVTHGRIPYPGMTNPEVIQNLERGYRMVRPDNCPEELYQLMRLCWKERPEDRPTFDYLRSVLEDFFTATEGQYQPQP

| IC50 (LCK protein) [nM] | IC50 (CSK protein) [nM] | Structure (SMILES) |
| --- | --- | --- |
| > 1000 | 9.4 | Nc1nccc(-c2sc(-c3cncc(F)c3)nc2-c2cccc(NS(=O)(=O)c3c(Cl)cccc3Cl)c2F)n1 [Compound 62] |
| > 1000 | 20.6 | CNc1nccc(-c2sc(-c3cncnc3)nc2-c2cccc(NS(=O)(=O)c3c(F)cccc3F)c2F)n1 [Compound 63] |
| > 1000 | 18.3 | CNc1nccc(-c2sc(-c3cncc(F)c3)nc2-c2cccc(NS(=O)(=O)c3c(F)cc(OC)cc3F)c2F)n1 [Compound 64] |
| > 1000 | 19.6 | O=S(=O)(Nc1cccc(-c2nc(-c3cncc(F)c3)sc2-c2ccnc(NCCO)n2)c1F)c1c(F)cccc1F [Compound 66] |
| > 1000 | 617 | NCCNc1nccc(-c2sc(-c3cncc(F)c3)nc2-c2cccc(NS(=O)(=O)c3c(F)cccc3F)c2F)n1 [Compound 67] |
| > 1000 | 16.2 | O=S(=O)(Nc1cccc(-c2nc(-c3cncc(F)c3)sc2-c2ccnc(NC3CC3)n2)c1F)c1c(F)cccc1F [Compound 68] |
| > 1000 | 26.1 | CNc1nccc(-c2sc(-c3cncc(F)c3)nc2-c2cc(OC)cc(NS(=O)(=O)c3c(F)cccc3F)c2F)n1 [Compound 72] |
| > 1000 | 8.8 | CNc1nccc(-c2sc(-c3cncc(F)c3)nc2-c2cccc(NS(=O)(=O)c3c(F)cccc3F)c2F)n1 [Compound 74] |
| > 1000 | 73.9 | CNc1nccc(-c2sc(-c3cncc(C(F)(F)F)c3)nc2-c2cccc(NS(=O)(=O)c3c(F)cccc3F)c2F)n1 [Compound 75] |
| > 1000 | 19.1 | CNc1nccc(-c2sc(-c3cnccn3)nc2-c2cccc(NS(=O)(=O)c3c(F)cccc3F)c2F)n1 [Compound 76] |
| > 1000 | 11.8 | CC(C)Nc1nccc(-c2sc(-c3cncc(F)c3)nc2-c2cccc(NS(=O)(=O)c3c(F)cccc3F)c2F)n1 [Compound 78] |
| > 1000 | 7.6 | O=S(=O)(Nc1cccc(-c2nc(-c3cncc(F)c3)sc2-c2ccnc(NCCO)n2)c1F)c1c(Cl)cccc1Cl [Compound 79] |
| > 1000 | 6 | O=S(=O)(Nc1cccc(-c2nc(-c3cncc(F)c3)sc2-c2ccnc(NC3CC3)n2)c1F)c1c(Cl)cccc1Cl [Compound 80] |

More lines, now with the values behind:

| Structure (SMILES) | IC50 (LCK protein) [nM] | IC50 (CSK protein) [nM] |
| --- | --- | --- |
| CNc1nccc(-c2sc(-c3ccc(C)nn3)nc2-c2cccc(NS(=O)(=O)c3c(F)ccc(C)c3F)c2F)n1 [Compound 65] | > 1000 | 14.9 |
| CNc1nccc(-c2sc(-c3cnc(C)nc3)nc2-c2cccc(NS(=O)(=O)c3c(F)ccc(C)c3F)c2F)n1 [Compound 69] | > 1000 | 13.4 |
| CNc1nccc(-c2sc(-c3ccc(F)cc3)nc2-c2cccc(NS(=O)(=O)c3c(F)ccc(C)c3F)c2F)n1 [Compound 70] | > 1000 | 92.3 |
| CNc1nccc(-c2sc(-c3cccc(F)c3)nc2-c2cccc(NS(=O)(=O)c3c(F)ccc(C)c3F)c2F)n1 [Compound 71] | > 1000 | 41.8 |
| CNc1nccc(-c2sc(-c3cncnc3)nc2-c2cccc(NS(=O)(=O)c3c(F)ccc(C)c3F)c2F)n1 [Compound 73] | > 1000 | 14.8 |
| CNc1nccc(-c2sc(-c3ccc(F)cn3)nc2-c2cccc(NS(=O)(=O)c3c(F)cc(F)cc3F)c2F)n1 [Compound 77] | > 1000 | 85.5 |
| Nc1nccc(-c2sc(-c3ccccc3)nc2-c2cccc(NS(=O)(=O)c3ccc4[nH]ncc4c3)c2F)n1 [Compound 83] | > 1000 | 842 |
| Nc1nccc(-c2c(-c3cccc(NS(=O)(=O)c4c(F)cccc4F)c3F)nc(-c3ccccc3)n2O)n1 [Compound 84] | > 1000 | 133 |
| Nc1nccc(-c2[nH]c(-c3ccccc3)nc2-c2cccc(NS(=O)(=O)c3c(F)cccc3F)c2F)n1 [Compound 85] | 100 to 1000 | 33.2 |
| CCc1ccn2c(-c3ccnc(N)n3)c(-c3cccc(NS(=O)(=O)c4c(F)cccc4F)c3F)nc2c1 [Compound 92] | > 1000 | 89.2 |

Source: patent US12427146B2, “C-terminal SRC kinase inhibitors” (INVENTISBIO CO., LTD., priority 2018, dated 2025)
